The target in one data set is T1, NK1 receptor (Cavia porcellus, UniProt P30547).
T1 construct: evaluated in guinea pig lungs (Keystone Biologicals, Cleveland, OH); tissue Keystone Biologicals, Cleveland, OH; host or cells: guinea pig lung membranes
Nature of the data set: Antagonism of iodinated tachykinin binding to NK1 receptor (125I-Bolton Hunter Lys-3 labeled substance P). To be noted: guinea pig lung membranes; mean of several experiments. Here is the method:
(§1) One skilled in the art can determine the NK1 receptor and NK2 receptor affinity in vitro as follows. The NK1 receptor affinity of tachykinin antagonists is evaluated in guinea pig lungs (Keystone Biologicals, Cleveland, OH) and affinity for the NK2 receptor is evaluated in HSKR-1 cells (which are mouse 3T3 fibroblasts expressing the human jejunal NK2 receptor). Tissues or cells are homogenized with a Polytron in 15 volumes of 50 mM Tris-HCl buffer (pH 7.4, 4°C) and centrifuged. The pellet is resuspended in Tris-HCl buffer and is centrifuged; the pellet is washed twice by resuspension. The final pellet is resuspended at a concentration of 40 mg/ml for tissues and 20 mg/ml for cells in incubation buffer and remains at room temperature for at least 15 min prior to use. Receptor binding is initiated by addition of 250 ul membrane preparation in duplicate to 0.1 nM of the following radioligands: ^125I-Bolton Hunter Lys-3 labeled substance P and ^125iodohistidyl-1-neurokinin A; in a final volume of 500 ul of buffer containing 50 mM Tris-HCl (pH 7.4 at room temperature), 0.1% bovine serum albumin, 2 mM mangenese chloride, 40 ug/ml bacitracin, 4 µg/ml leupeptin and chymostatin, 10 µM thiorphan and various doses of the putative tachykinin antagonists. […] Filter bound radioactivity is quantitated in a gamma counter. Nonspecific binding is defined as binding in the presence of 1 µM substance P or neurokinin A. Specific binding is calculated by subtracting nonspecific binding from total binding. Competition of iodinated SP or NKA binding by test compounds or standards is expressed as a percentage of this maximum binding. […]
(§2) Tachykinin receptor binding (IC50 values) for representative compounds of the present invention are found in Table 1. Specifically, NK1 and NK2 receptor binding values were determined by the method of present Example A. These values represent the mean of several experiments. […]

In data set [1] the target is T2, human jejunal NK2 receptor (Homo sapiens, UniProt P21452).
T2 construct: expressed in transfected cells; host or cells: HSKR-1 cells (mouse 3T3 fibroblasts)
T2 sequence (P21452 1-398): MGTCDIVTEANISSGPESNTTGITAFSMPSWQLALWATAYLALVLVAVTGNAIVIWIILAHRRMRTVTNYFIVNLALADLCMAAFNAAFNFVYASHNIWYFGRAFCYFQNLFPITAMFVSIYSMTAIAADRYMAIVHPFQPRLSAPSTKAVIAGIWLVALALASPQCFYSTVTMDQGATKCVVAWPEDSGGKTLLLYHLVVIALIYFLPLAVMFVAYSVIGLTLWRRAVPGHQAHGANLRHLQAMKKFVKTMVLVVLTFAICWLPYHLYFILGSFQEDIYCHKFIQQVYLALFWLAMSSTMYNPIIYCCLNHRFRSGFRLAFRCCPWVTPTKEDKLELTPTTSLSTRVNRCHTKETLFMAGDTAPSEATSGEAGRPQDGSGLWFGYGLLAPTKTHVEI
Nature of the data set: Antagonism of iodinated tachykinin binding to NK2 receptor (125iodohistidyl-1-neurokinin A) in HSKR-1 cells. Conditions: HSKR-1 cells (mouse 3T3 fibroblasts expressing the human jejunal NK2 receptor); mean of several experiments. Here is the method: as §1, §2

Data set [2] is described as follows: Metabolic stability: disappearance of test compound in guinea pig liver S9 supernatant. The class given is in vitro ADME. To be noted: initial concentration 10µM, 37°C. Here is the method: (§3) One skilled in the art can determine the metabolic stability for the compounds of the present invention by determining the rate of disappearance of the test comopund in vitro in liver extracts. Metabolic stability is inversely related to the rate of metabolism which can be evaluated by determining the rate of disappearance of the test compounds during the initial linear phase of this assay.
(§4) This method is carried out using either S9 or S10 liver supernatant obtained from either guinea pig or human liver. Guinea pig liver S9 can be purchased from Vitro Technologies, Baltimore, Md and human liver S9 can be purchased from IIAM, Eaton Pa. Both guinea pig and human S10 supernatant can be prepared as follows: Combine weighed liver (fresh or stored at -80°C until use) and 1.15% aqueous potassium chloride solution (10-15 mL) and homogenize using a PCU Poltron from Kinematics of Switzerland or equivalent. Combine the homogenate with 1.15% aqueous potassium chloride solution, sufficient so that 3 mL of solution (total) is used per […] of liver, and mix. Store the above homogenate on ice at all times prior to use and at -80°C for long term storage.
(§5) Prepare a stock solution of each test compound in methanol, such that 0.1 mL of the stock solution when spiked into 16 mL of incubation mixture yields an initial concentration of 10µM of the test compound. Using this method the methanol content of the final incubation mixture will not exceed 1%.
(§6) Prepare the incubation mixture by combining in an incubation beaker S9 or S10 supernatant (4 mL); an aqueous solution containing 1.1 mM NADP, […] (4 units/2 mL)(0.32 mL); and an aqueous 0.1 M dipotassium monohydrogen phosphate solution (7.58 mL). Incubate the test compound by adding 0.1 mL of the stock solution of test compound to an incubation mixture, placed in a shaking water bath at 37°C.
(§7) To determine the rate of disappearance of test compounds in this assay, remove triplicate aliquots (0.5 mL) from the incubation beaker at 1, 3, 5, 10, 15, 30, and 60 minutes. Freeze all aliquots in a hexane/dry-ice slurry to instantly deactivate the enzymes. Store at -70°C until assayed. The concentration of test compound in each aliquot is determined by HPLC after preparation and as compared to a standard concentration of test compound, such preparations and determinations are well known and appreciated in the art. The rate of disappearance can be determined from the slope of the initial linear phase of this assay by graphing the change in concentration of test compound vs. time.
(§8) Calibration standards for Compound A were prepared as follows: dissolve 10 mg of Compound A (free base) in methanol (10 mL) to give a 1 mg/mL stock solution. Use acetonitrile to dilute 1 mL of stock solution to 10 mL to give a 100 µg/mL spiking standard and serially dilute the 100µg/mL solution with acetonitrile to give spiking standards having concentrations of 50, 25, 10, 5, 2.5, and 1.0 µg/mL. Calibration standards having concentrations of 10,000; 5,000; 2,500; 1,000; 500; 250; and 100 ng/mL are prepared in duplicated by adding 20 µL of each spiking standards to 0.2 mL of control S9 supernatant. Blanks and samples each receive 20µL of acetonitrile. Calibration standards and aliquots from that assay of compound A were prepared and evaluated as follows: charge a purple sulfonic acid solid phase extraction cartridge (Varian Inc., Harbor City, Ca.) with methanol (1 mL) and an aqueous 0.5% monochloroacetic acid solution (1 mL). Dilute the 0.2 mL of calibration standard or aliquot from the incubation with aqueous 5% acetonitrile (0.5 mL) and add to the charged cartridge. Pull the sample through the cartridge using vacuum, rinse with aqueous 0.5% monochloroacetic acid solution (1 mL), aqueous 50% acetonitrile solution (50 mM potassium hydroxide) (1 mL). Elute into HPLC vial using 60% methanol, 38% water, 1% acetic acid, 1% triethylamine (0.4 mL). […]

Data set [3] is described as follows: Metabolic stability: disappearance of test compound in human liver S9 supernatant. The class given is in vitro ADME. To be noted: initial concentration 10µM, 37°C. Here is the method: as §3, §4, §5, §6, §7, §8

SMILES strings stand for the structures. Structures can show the parent of a compound that is named as a salt.

T1 sequence (P30547 whole entry): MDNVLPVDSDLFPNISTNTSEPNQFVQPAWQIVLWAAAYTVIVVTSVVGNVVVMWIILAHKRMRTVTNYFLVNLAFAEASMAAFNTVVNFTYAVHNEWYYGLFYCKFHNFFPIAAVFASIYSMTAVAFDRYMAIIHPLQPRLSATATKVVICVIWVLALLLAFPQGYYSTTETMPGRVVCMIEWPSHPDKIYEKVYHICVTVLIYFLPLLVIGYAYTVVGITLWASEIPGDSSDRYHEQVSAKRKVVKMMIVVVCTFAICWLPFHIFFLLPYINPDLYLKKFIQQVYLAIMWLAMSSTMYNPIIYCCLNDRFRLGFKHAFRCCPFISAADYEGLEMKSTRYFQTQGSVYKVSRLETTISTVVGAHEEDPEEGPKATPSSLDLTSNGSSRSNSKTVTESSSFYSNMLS

For `COc1ccc(-n2cnnn2)cc1C(=O)N1CC[C@](CCN2CCC(C(N)=O)(c3cccnc3)CC2)(c2ccc(Cl)c(Cl)c2)C1` [Compound B, (R)-1-(2-methoxy-5-(1H-tetrazol-1-yl)benzoyl)-3-(2-(4-(pyrid-3-yl)-4-carboxamidopiperidin-1-yl)ethyl)-3-(3,4-dichlorophenyl)pyrrolidine hydrochloric acid salt], the IC50 (in general, the midpoint of a concentration-inhibition curve) at NK1 receptor stood at 3.15 nM; in data set [1], 232 nM. Moreover, the “Metabolic Stability in Guinea Pig Liver S9, concentration” value worked out at 6.2 µg/mL in data set [2] (Time 1 min); 6.4 µg/mL in data set [2] (Time 3 min); 6.4 µg/mL in data set [2] (Time 5 min); 6.3 µg/mL in data set [2] (Time 10 min); 6.3 µg/mL in data set [2] (Time 15 min); 6.3 µg/mL in data set [2] (Time 30 min). The “Metabolic Stability in Guinea Pig Liver S9, concentration” value in data set [2] (Time 60 min) is 6.2 µg/mL. Also, the “Metabolic Stability in Human Liver S9, concentration” value in data set [3] (Time 1 min) worked out at 6.4 µg/mL; in data set [3] (Time 3 min), 6.6 µg/mL; in data set [3] (Time 5 min), 6.1 µg/mL; in data set [3] (Time 10 min) it was 6.1 µg/mL; in data set [3] (Time 15 min), 5.7 µg/mL; in data set [3] (Time 30 min) it was 5.3 µg/mL. Moreover, the “Metabolic Stability in Human Liver S9, concentration” value in data set [3] (Time 60 min) was 4.4 µg/mL.

Turning to `COc1ccc(-n2cnnn2)cc1C(=O)N1CC[C@](CCN2CCC(C(N)=O)(c3ccccc3)CC2)(c2ccc(Cl)c(Cl)c2)C1` [Compound A, (R)-1-(2-methoxy-5-(1H-tetrazol-1-yl)benzoyl)-3-(2-(4-phenyl-4-carboxamidopiperidin-1-yl)ethyl)-3-(3,4-dichlorophenyl)pyrrolidine hydrochloric acid salt], the IC50 came to 2.79 nM on NK1 receptor and 16.3 nM in data set [1]. Further, the “Metabolic Stability in Guinea Pig Liver S9, concentration” value in data set [2] (Time 1 min) is on record as 6.1 µg/mL; in data set [2] (Time 3 min), 6.6 µg/mL; in data set [2] (Time 5 min) it was 6.3 µg/mL; in data set [2] (Time 10 min), 6.1 µg/mL; in data set [2] (Time 15 min), 6.1 µg/mL; in data set [2] (Time 30 min) it was 6.3 µg/mL. In data set [2] (Time 60 min), the “Metabolic Stability in Guinea Pig Liver S9, concentration” value was 6.9 µg/mL. Further, the “Metabolic Stability in Human Liver S9, concentration” value in data set [3] (Time 1 min) stood at 6.6 µg/mL; in data set [3] (Time 3 min) it was 6.5 µg/mL; in data set [3] (Time 5 min), 6.6 µg/mL; in data set [3] (Time 10 min), 6.7 µg/mL; in data set [3] (Time 15 min), 6.6 µg/mL; in data set [3] (Time 30 min), 6.8 µg/mL. In data set [3] (Time 60 min), the “Metabolic Stability in Human Liver S9, concentration” value was 6.9 µg/mL.

For the compound `COc1cc(C(=O)N2CCC(CCN3CCC(C(N)=O)(c4ccccc4)CC3)(c3ccc(Cl)c(Cl)c3)C2)cc(OC)c1OC.Cl` (single isomer, unassigned; (+)) [Compound C, (+)-1-(2-(3-(3,4-dichloro-phenyl)-1-(3,4,5-trimethoxy-benzoyl)-pyrrolidin-3-yl)-ethyl)-4-phenyl-piperidine-4-carboxylic acid amide hydrochloride, reference compound], the IC50 was found to be 3.04 nM at NK1 receptor and 8.17 nM in data set [1]. Besides, the “Metabolic Stability in Guinea Pig Liver S9, concentration” value in data set [2] (Time 1 min) came to 6.3 µg/mL; in data set [2] (Time 3 min) it was 6.0 µg/mL; in data set [2] (Time 5 min) it was 5.3 µg/mL; in data set [2] (Time 10 min) it was 4.8 µg/mL; in data set [2] (Time 15 min), 4.0 µg/mL; in data set [2] (Time 30 min), 3.8 µg/mL. In addition, in data set [2] (Time 60 min), the “Metabolic Stability in Guinea Pig Liver S9, concentration” value was 3.5 µg/mL. In addition, the “Metabolic Stability in Human Liver S9, concentration” value stood at 6.2 µg/mL in data set [3] (Time 1 min); 5.6 µg/mL in data set [3] (Time 3 min); 5.9 µg/mL in data set [3] (Time 5 min); 5.2 µg/mL in data set [3] (Time 10 min); 4.5 µg/mL in data set [3] (Time 15 min); 3.2 µg/mL in data set [3] (Time 30 min). The “Metabolic Stability in Human Liver S9, concentration” value in data set [3] (Time 60 min) amounted to 2.5 µg/mL.

For the origin of these results see patent EP0946548B1, “NOVEL HETEROCYCLIC SUBSTITUTED PYRROLIDINE AMIDE DERIVATIVES” (Aventis Pharmaceuticals Inc., priority 1996, dated 1998).
